Measured values from ChEMBL document CHEMBL1158513, “Identification and SAR of novel pyrrolo[1,2-a]pyrazin-1(2H)-one derivatives as inhibitors of poly(ADP-ribose) polymerase-1 (PARP-1)” (Bioorg Med Chem Lett, 2010).
“And” between values parts separate entries of the source, which are not always exact repeats. Equal values may be shown once.

Tests used:
[1] = biological target: Poly [ADP-ribose] polymerase 1 (Homo sapiens, UniProt P09874); experiment: Inhibition of PARP1 by topcount microplate scintillation counter
HeLa [2] = experiment: Antiproliferative activity against BRCA1-proficient human HeLa cells after 7 days by celltiter-blue assay; assay type: functional; details: 168 h
HeLa [3] = experiment: Antiproliferative activity against BRCA1-deficient human HeLa cells after 7 days by celltiter-blue assay; assay type: functional; details: 168 h
[4] = Clearance in rat; assay type: ADME, organism-based; details: in vivo
CYP3A4 = CYP3A4 (Homo sapiens, UniProt P08684); experiment: Inhibition of CYP3A4 at 10 uM; assay type: ADME
[5] = Intrinsic clearance in rat liver microsomes; assay type: ADME, Microsome
HeLa [6] = experiment: Selectivity ratio of CC50 for BRCA1-proficient human HeLa to CC50 for BRCA1-deficient human HeLa cells; assay type: functional
[7] = Lipophilicity, log D of the compound; assay type: physicochemical; details: octanol/water

Chain of Poly [ADP-ribose] polymerase 1 (P09874 whole entry): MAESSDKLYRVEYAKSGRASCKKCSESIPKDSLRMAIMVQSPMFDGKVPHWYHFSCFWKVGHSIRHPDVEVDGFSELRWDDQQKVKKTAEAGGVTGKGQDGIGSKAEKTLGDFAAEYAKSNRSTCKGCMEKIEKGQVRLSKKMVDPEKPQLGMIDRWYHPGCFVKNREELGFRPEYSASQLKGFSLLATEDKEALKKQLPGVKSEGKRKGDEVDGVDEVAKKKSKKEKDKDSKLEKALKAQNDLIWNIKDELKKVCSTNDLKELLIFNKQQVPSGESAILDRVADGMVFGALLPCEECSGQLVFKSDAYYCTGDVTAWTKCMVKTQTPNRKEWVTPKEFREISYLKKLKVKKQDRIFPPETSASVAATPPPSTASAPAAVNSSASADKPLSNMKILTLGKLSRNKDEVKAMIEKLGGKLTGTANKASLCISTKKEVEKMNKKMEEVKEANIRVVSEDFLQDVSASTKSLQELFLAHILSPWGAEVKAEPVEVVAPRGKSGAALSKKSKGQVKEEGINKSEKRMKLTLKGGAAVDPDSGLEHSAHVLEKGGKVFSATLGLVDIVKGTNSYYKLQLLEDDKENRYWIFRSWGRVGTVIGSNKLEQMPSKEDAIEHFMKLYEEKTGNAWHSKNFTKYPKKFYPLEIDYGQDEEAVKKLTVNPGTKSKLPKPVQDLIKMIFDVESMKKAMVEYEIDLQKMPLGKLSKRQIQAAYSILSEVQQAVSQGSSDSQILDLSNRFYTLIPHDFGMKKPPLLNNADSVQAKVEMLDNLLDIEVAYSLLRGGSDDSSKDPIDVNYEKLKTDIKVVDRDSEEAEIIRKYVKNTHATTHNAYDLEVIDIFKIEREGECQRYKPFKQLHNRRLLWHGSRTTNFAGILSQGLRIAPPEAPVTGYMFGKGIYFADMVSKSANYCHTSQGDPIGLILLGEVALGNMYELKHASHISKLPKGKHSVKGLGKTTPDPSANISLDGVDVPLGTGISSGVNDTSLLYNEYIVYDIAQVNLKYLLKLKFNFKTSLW
Chain of CYP3A4 (P08684 whole entry): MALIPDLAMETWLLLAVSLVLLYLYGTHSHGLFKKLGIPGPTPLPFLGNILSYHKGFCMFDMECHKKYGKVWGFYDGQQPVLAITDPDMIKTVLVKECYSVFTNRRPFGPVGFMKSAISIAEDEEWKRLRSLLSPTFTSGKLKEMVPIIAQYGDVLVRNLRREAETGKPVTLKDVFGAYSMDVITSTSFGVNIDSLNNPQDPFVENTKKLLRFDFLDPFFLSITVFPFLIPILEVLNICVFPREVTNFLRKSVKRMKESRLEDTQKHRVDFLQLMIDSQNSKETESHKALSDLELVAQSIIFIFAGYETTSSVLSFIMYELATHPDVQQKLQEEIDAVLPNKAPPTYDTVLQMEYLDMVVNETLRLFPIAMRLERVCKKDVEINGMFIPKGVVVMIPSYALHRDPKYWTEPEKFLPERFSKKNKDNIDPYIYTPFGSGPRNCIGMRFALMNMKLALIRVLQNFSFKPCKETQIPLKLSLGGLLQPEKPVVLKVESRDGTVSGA

IC50 [1] [nM] | logD [7] | Compound | CC50 (HeLa [2]) [nM] | CC50 (HeLa [3]) [nM] | clearance [4] [mL/min/kg] | inhibition at 10 µM (CYP3A4) [%] | microsomal CLint [5] [µL/min/mg] | Selectivity ratio (HeLa [6])
13 |  | CCCCN1CCN(C(=O)c2cc(Cc3c[nH]c(=O)c4cc(Cl)c(Cl)n34)ccc2F)CC1 | > 10000 | 1600 |  |  |  | 
7.2 |  | CN(C)C(=O)N1CCN(C(=O)c2cc(Cc3c[nH]c(=O)c4cc(Cl)c(Cl)n34)ccc2F)CC1 | > 10000 | 670 |  |  |  | 
200 |  | O=C(c1cc(Cc2c[nH]c(=O)c3cc(Cl)c(Cl)n23)ccc1F)N1CCCCC1 |  |  |  |  |  | 
2.6 |  | CN(C)C1CCN(C(=O)c2cc(Cc3c[nH]c(=O)c4cc(Cl)c(Cl)n34)ccc2F)CC1 | > 10000 | 1600 |  |  |  | 
22 |  | CCN(CC)C1CCN(C(=O)c2cc(Cc3c[nH]c(=O)c4cc(Cl)c(Cl)n34)ccc2F)CC1 | > 5000 | 1100 |  |  |  | 
9 |  | O=C(c1cc(Cc2c[nH]c(=O)c3cc(Cl)c(Cl)n23)ccc1F)N1CCC2(CC1)NCNC2=O | > 5000 | > 2500 |  |  |  | 
2.1 |  | CNC(C)(C)C(=O)N1CCN(C(=O)c2cc(Cc3c[nH]c(=O)c4cc(Cl)c(Cl)n34)ccc2F)CC1 | > 5000 | 53 | > 200 |  |  | 100 and 50
2.3 |  | O=C(c1cc(Cc2c[nH]c(=O)c3cc(Cl)c(Cl)n23)ccc1F)N1CCNCC1 | > 20000 | 180 |  |  |  | 
41 |  | CN1CCN(C(=O)c2cc(Cc3c[nH]c(=O)c4cc(Cl)c(Cl)n34)ccc2F)CC1 |  |  |  |  |  | 
15 |  | COc1cccnc1N1CCN(C(=O)c2cc(Cc3c[nH]c(=O)c4cc(Cl)c(Cl)n34)ccc2F)CC1 | > 5000 | 2700 |  |  |  | 
13 |  | O=C(c1cc(Cc2c[nH]c(=O)c3cc(Cl)c(Cl)n23)ccc1F)N1CCN(CCO)CC1 | > 10000 | > 5000 |  |  |  | 
2.1 |  | CC(C)C(=O)N1CCN(C(=O)c2cc(Cc3c[nH]c(=O)c4cc(Cl)c(Cl)n34)ccc2F)CC1 | > 5000 | 150 |  |  |  | 30
1.4 |  | O=C(c1cc(Cc2c[nH]c(=O)c3cc(Cl)c(Cl)n23)ccc1F)N1CCN(c2ncnc3ccccc23)CC1 | 920 | 60 |  |  |  | 
5 |  | CN1CCCN(C(=O)c2cc(Cc3c[nH]c(=O)c4cc(Cl)c(Cl)n34)ccc2F)CC1 | > 20000 | 1100 |  |  |  | 
19 |  | CC(=O)N1CCCN(C(=O)c2cc(Cc3c[nH]c(=O)c4cc(Cl)c(Cl)n34)ccc2F)CC1 | > 20000 | 5700 |  |  |  | 
2.6 | 0.91 | O=C(c1cc(Cc2c[nH]c(=O)c3cc(Cl)c(Cl)n23)ccc1F)N1CCCNCC1 | > 20000 | 170 |  |  |  | 
2.4 |  | CN(C)S(=O)(=O)N1CCN(C(=O)c2cc(Cc3c[nH]c(=O)c4cc(Cl)c(Cl)n34)ccc2F)CC1 | > 10000 | 910 |  |  |  | 
2.5 |  | CN(C)CC(=O)N1CCN(C(=O)c2cc(Cc3c[nH]c(=O)c4cc(Cl)c(Cl)n34)ccc2F)CC1 | > 10000 | 3500 |  |  |  | 
5.1 |  | CN(C)C(C)(C)C(=O)N1CCN(C(=O)c2cc(Cc3c[nH]c(=O)c4cc(Cl)c(Cl)n34)ccc2F)CC1 | > 5000 | 200 |  |  |  | 

IC50 [1] [nM] | logD [7] | Compound | CC50 (HeLa [2]) [nM] | CC50 (HeLa [3]) [nM] | clearance [4] [mL/min/kg] | inhibition at 10 µM (CYP3A4) [%] | microsomal CLint [5] [µL/min/mg] | Selectivity ratio (HeLa [6])
1.8 | -0.89 | O=C(c1cc(Cc2c[nH]c(=O)c3cccn23)ccc1F)N1CCCNCC1 | > 20000 | > 20000 |  |  |  | 
9 |  | CCS(=O)(=O)N1CCN(C(=O)c2cc(Cc3c[nH]c(=O)c4cc(Cl)c(Cl)n34)ccc2F)CC1 | > 5000 | 3000 |  |  |  | 
2.4 |  | O=C(c1ccccn1)N1CCN(C(=O)c2cc(Cc3c[nH]c(=O)c4cc(Cl)c(Cl)n34)ccc2F)CC1 | > 5000 | 150 |  |  |  | 30
4 |  | O=C(c1cc(Cc2c[nH]c(=O)c3c(Cl)cc(Cl)n23)ccc1F)N1CCCNCC1 | > 20000 | 18000 |  |  |  | 
59 |  | O=C(c1cc(Cc2c[nH]c(=O)c3cc(Cl)c(Cl)n23)ccc1F)N1CCOCC1 |  |  |  |  |  | 
1.6 |  | O=C(c1cc(Cc2c[nH]c(=O)c3c(Cl)c(Cl)cn23)ccc1F)N1CCCNCC1 | > 20000 | 220 |  |  |  | 
14 |  | CC(C)CN1CCN(C(=O)c2cc(Cc3c[nH]c(=O)c4cc(Cl)c(Cl)n34)ccc2F)CC1 | > 10000 | 250 |  |  |  | 
18 |  | CN(C)CCN1CCN(C(=O)c2cc(Cc3c[nH]c(=O)c4cc(Cl)c(Cl)n34)ccc2F)CC1 | > 10000 | > 10000 |  |  |  | 
6.3 |  | CC(=O)N1CCN(C(=O)c2cc(Cc3c[nH]c(=O)c4cc(Cl)c(Cl)n34)ccc2F)CC1 | > 10000 | 700 |  |  |  | 
14 |  | N#Cc1ccc(N2CCN(C(=O)c3cc(Cc4c[nH]c(=O)c5cc(Cl)c(Cl)n45)ccc3F)CC2)nc1 | 4200 | 200 |  |  |  | 
1 |  | O=C(c1cc(Cc2c[nH]c(=O)c3cc(Cl)c(Cl)n23)ccc1F)N1CCN(c2ncc3ccccc3n2)CC1 | 770 | 190 |  |  |  | 
12 |  | O=C(c1cc(Cc2c[nH]c(=O)c3cc(Cl)c(Cl)n23)ccc1F)N1CCN(c2cccnc2)CC1 | > 5000 | > 5000 |  |  |  | 20
3.1 |  | O=C(c1ncc[nH]1)N1CCN(C(=O)c2cc(Cc3c[nH]c(=O)c4cc(Cl)c(Cl)n34)ccc2F)CC1 | > 5000 | 500 |  |  |  | 
2 |  | CN(C)C(=O)C(=O)N1CCN(C(=O)c2cc(Cc3c[nH]c(=O)c4cc(Cl)c(Cl)n34)ccc2F)CC1 | > 10000 | 1800 |  |  |  | 
2.8 |  | O=C(c1cc(Cc2c[nH]c(=O)c3cc(Cl)c(Cl)n23)ccc1F)N1CCN(c2ccccn2)CC1 | > 10000 | 430 |  |  |  | 
7.1 |  | NC1CCN(C(=O)c2cc(Cc3c[nH]c(=O)c4cc(Cl)c(Cl)n34)ccc2F)CC1 | > 10000 | 3800 |  |  |  | 
3.2 |  | CCC(=O)N1CCN(C(=O)c2cc(Cc3c[nH]c(=O)c4cc(Cl)c(Cl)n34)ccc2F)CC1 | > 5000 | 1200 |  |  |  | 
 |  | O=C(c1cc(Cc2c[nH]c(=O)c3cc(Cl)c(Cl)n23)ccc1F)N1CCC2(CCCN2)CC1 | > 10000 | 48 |  |  |  | 50
1.6 |  | Cc1cc2c(=O)[nH]cc(Cc3ccc(F)c(C(=O)N4CCCNCC4)c3)n2c1 | > 20000 | 3400 |  |  |  | 

Compound | IC50 [1] [nM] | logD [7] | CC50 (HeLa [2]) [nM] | CC50 (HeLa [3]) [nM] | clearance [4] [mL/min/kg] | inhibition at 10 µM (CYP3A4) [%] | microsomal CLint [5] [µL/min/mg] | Selectivity ratio (HeLa [6])
O=C(c1cc(Cc2c[nH]c(=O)c3cc(Cl)c(Cl)n23)ccc1F)N1CCN(c2ncccn2)CC1 | 3.1 |  | 2800 | 130 |  |  |  | 
O=C(c1cc(Cc2c[nH]c(=O)c3cc(Cl)c(Cl)n23)ccc1F)N1CCC(N2CCCC2)CC1 | 5.4 |  | > 5000 | 120 | 94 | 30 | 135 | 
O=C(c1cc(Cc2c[nH]c(=O)c3cc(Cl)c(Cl)n23)ccc1F)N1CCC(N2CCC2)CC1 | 1 |  | > 10000 | 180 |  |  |  | 
O=C(c1cc(Cc2c[nH]c(=O)c3cc(Cl)c(Cl)n23)ccc1F)N1CCC2(CCN2)CC1 | 8.2 |  | > 5000 | 2300 |  |  |  | 
O=C(c1cc(Cc2c[nH]c(=O)c3cc(Cl)c(Cl)n23)ccc1F)N1CCN(C2CCCCC2)CC1 | 14 |  | > 5000 | 970 |  |  |  | 
O=C(c1cc(Cc2c[nH]c(=O)c3cc(Cl)c(Cl)n23)ccc1F)N1CCN(c2cc3ccccc3cn2)CC1 | 1.8 |  | 1200 | 320 |  |  |  | 
N#Cc1cccnc1N1CCN(C(=O)c2cc(Cc3c[nH]c(=O)c4cc(Cl)c(Cl)n34)ccc2F)CC1 | 0.7 |  | 1600 | 62 |  |  |  | 25
O=C(c1cc(Cc2c[nH]c(=O)c3cc(Cl)c(Cl)n23)ccc1F)N1CCN(c2ccccc2F)CC1 | 24 |  | > 10000 | > 10000 |  |  |  | 
CC(C)(C)C(=O)N1CCN(C(=O)c2cc(Cc3c[nH]c(=O)c4cc(Cl)c(Cl)n34)ccc2F)CC1 | 1 |  | > 5000 | 340 |  |  |  | 
O=C(c1cc(Cc2c[nH]c(=O)c3cc(Cl)c(Cl)n23)ccc1F)N1CCN(C(=O)C2CCCC2)CC1 | 3.7 |  | > 5000 | 270 |  |  |  | 
O=C(c1cc(Cc2c[nH]c(=O)c3cc(Cl)c(Cl)n23)ccc1F)N1CCC2(CCCCN2)CC1 | 6.2 |  | > 5000 | 220 |  |  |  | 
CNC1CCN(C(=O)c2cc(Cc3c[nH]c(=O)c4cc(Cl)c(Cl)n34)ccc2F)CC1 | 2.3 |  | > 5000 | 400 |  |  |  | 
O=C(c1cc(Cc2c[nH]c(=O)c3cc(Cl)cn23)ccc1F)N1CCCNCC1 | 1 | 0.58 | > 20000 | 2500 |  |  |  | 
